Experimental data: paper PMC6423499, “SPR-Measured Dissociation Kinetics of PROTAC Ternary Complexes Influence Target Degradation Rate” (ACS Chemical Biology, 2019)
Like-named read-outs stand apart in the source and are kept apart here. Marks after values point to notes of the source that are not given here.

Legend:
VHL + Brd2^BD2 [1] = system: VHL + Brd2^BD2; parameters: method as in PMID 28288108; conditions: ternary + Brd2^BD2, ITC, ref [2]; cited from earlier work
VHL + Brd4^BD1 [2] = system: VHL + Brd4^BD1; parameters: method as in PMID 28288108; conditions: ternary + Brd4^BD1, ITC, ref [2]; cited from earlier work
VHL + Brd3^BD2 [3] = system: VHL + Brd3^BD2; parameters: method as in PMID 28288108; conditions: ternary + Brd3^BD2, ITC, ref [2]; cited from earlier work
VHL + Brd3^BD1 [4] = system: VHL + Brd3^BD1; parameters: method as in PMID 28288108; conditions: ternary + Brd3^BD1, ITC, ref [2]; cited from earlier work
VHL + Brd2^BD1 [5] = system: VHL + Brd2^BD1; parameters: method as in PMID 28288108; conditions: ternary + Brd2^BD1, ITC, ref [2]; cited from earlier work
VHL + Brd4^BD2 [6] = conditions: cited from earlier work; for Kd: ternary + Brd4^BD2, ITC at 298.15 K; for ΔΔG (ITC) / α (ITC): ternary + Brd4^BD2, ITC
VHL [7] = target: T1, VHL (Homo sapiens, UniProt P40337); experiment: SPR binary binding of PROTAC to immobilized VHL; conditions: binary (PROTAC alone), 285.15 K
T1 construct: VHL (54-213); His6 with TEV cleavage site (N, cleaved yes); made in house; host or cells: E. coli BL21(DE3)

Brd4^BD2 = Brd4^BD2 (Homo sapiens, UniProt O60885); experiment: Reversed-format SPR, PROTAC binary binding to immobilized Brd4^BD2; conditions: qualitative, Figures S4 and S6
VHL [8] = conditions: binary, ITC at 298.15 K, cited from earlier work
VHL + Brd4^BD2 [9] = target: T2, VHL + Brd4^BD2 (Homo sapiens, UniProt O60885+P40337); experiment: SPR ternary binding of PROTAC:Brd4^BD2 complex to immobilized VHL; conditions: for ΔΔG (ΔG^ternary – ΔG^binary) / α (cooperativity, KD^binary/KD^ternary): SPR; for Kd / koff / kon / t1/2 (dissociative half-life, ln2/koff): ternary (+ Brd4^BD2), 298.15 K; for dissociation kinetics faster than the VHL/MZ1/Brd4^BD2 complex: ternary complex with Brd4^BD2
T2 construct: VHL (54-213); Brd4BD2 (333-460); His6 with TEV cleavage site (N, cleaved yes); made in house; host or cells: E. coli BL21(DE3) (VCB)

VHL + Brd3^BD1 [10] = target: T3, VHL + Brd3^BD1 (Homo sapiens, UniProt P40337+Q15059); experiment: SPR ternary binding of PROTAC:Brd3^BD1 complex to immobilized VHL
T3 construct: VHL (54-213); Brd3BD1 (24-144); His6 with TEV cleavage site (N, cleaved yes); made in house; host or cells: E. coli BL21(DE3) (VCB)

VHL + Brd4BD2G386E = target: T4, VHL + Brd4BD2G386E (Homo sapiens, UniProt O60885+P40337, G386E); experiment: SPR ternary binding of PROTAC:Brd4^BD2 G386E point mutant complex to immobilized VHL
T4 construct: VHL (54-213); Brd4BD2 (333-460); His6 with TEV cleavage site (N, cleaved yes); made in house; host or cells: E. coli BL21(DE3) (VCB)

VHL + Brd2^BD1 [11] = target: T5, VHL + Brd2^BD1 (Homo sapiens, UniProt P25440+P40337); experiment: SPR ternary binding of PROTAC:Brd2^BD1 complex to immobilized VHL
T5 construct: VHL (54-213); Brd2BD1 (71-194); His6 with TEV cleavage site (N, cleaved yes); made in house; host or cells: E. coli BL21(DE3) (VCB)

VHL + Brd4^BD1 [12] = target: T6, VHL + Brd4^BD1 (Homo sapiens, UniProt O60885+P40337); experiment: SPR ternary binding of PROTAC:Brd4^BD1 complex to immobilized VHL
T6 construct: VHL (54-213); Brd4BD1 (44-168); His6 with TEV cleavage site (N, cleaved yes); made in house; host or cells: E. coli BL21(DE3) (VCB)

VHL + Brd3BD2E344G = target: T7, VHL + Brd3BD2E344G (Homo sapiens, UniProt P40337+Q15059, E344G); experiment: SPR ternary binding of PROTAC:Brd3^BD2 E344G point mutant complex to immobilized VHL
T7 construct: VHL (54-213); Brd3BD2 (306-416); His6 with TEV cleavage site (N, cleaved yes); made in house; host or cells: E. coli BL21(DE3) (VCB)

VHL + Brd2^BD2 [13] = target: T8, VHL + Brd2^BD2 (Homo sapiens, UniProt P25440+P40337); experiment: SPR ternary binding of PROTAC:Brd2^BD2 complex to immobilized VHL
T8 construct: VHL (54-213); Brd2BD2 (344-455); His6 with TEV cleavage site (N, cleaved yes); made in house; host or cells: E. coli BL21(DE3) (VCB)

VHL + Brd2BD2G382E = target: T9, VHL + Brd2BD2G382E (Homo sapiens, UniProt P25440+P40337, G382E); experiment: SPR ternary binding of PROTAC:Brd2^BD2 G382E point mutant complex to immobilized VHL
T9 construct: VHL (54-213); Brd2BD2 (344-455); His6 with TEV cleavage site (N, cleaved yes); made in house; host or cells: E. coli BL21(DE3) (VCB)

VHL + Brd3^BD2 [14] = target: T10, VHL + Brd3^BD2 (Homo sapiens, UniProt P40337+Q15059); experiment: SPR ternary binding of PROTAC:Brd3^BD2 complex to immobilized VHL
T10 construct: VHL (54-213); Brd3BD2 (306-416); His6 with TEV cleavage site (N, cleaved yes); made in house; host or cells: E. coli BL21(DE3) (VCB)

[15] = steady-state affinity fit (SSA)
[16] = ternary + Brd4^BD2, kinetic fit
[17] = ternary + Brd4^BD2, steady-state affinity fit (SSA)

| Compound | Kd (VHL + Brd4^BD2 [6]; ref [10]) [nM] | ΔΔG (ITC) (VHL + Brd4^BD2 [6]; ref [10]) | α (ITC) (VHL + Brd4^BD2 [6]; ref [10]) | Kd (VHL [7]; [15]) [nM] | binary target affinity (for Brd4) (Brd4^BD2) | Kd (VHL [8]; ref [10]) [nM] | ΔΔG (ΔG^ternary – ΔG^binary) (VHL + Brd4^BD2 [9]; [16]) | α (cooperativity, KD^binary/KD^ternary) (VHL + Brd4^BD2 [9]; [16]) | ΔΔG (ΔG^ternary – ΔG^binary) (VHL + Brd4^BD2 [9]; [17]) | α (cooperativity, KD^binary/KD^ternary) (VHL + Brd4^BD2 [9]; [17]) | Kd (VHL + Brd4^BD2 [9]; single-cycle, kinetic fit) [nM] | koff (VHL + Brd4^BD2 [9]; single-cycle, kinetic fit) [s⁻¹] | kon (VHL + Brd4^BD2 [9]; single-cycle, kinetic fit) [M^–1 s^–1 × 10^5] | t1/2 (dissociative half-life, ln2/koff) (VHL + Brd4^BD2 [9]; single-cycle, kinetic fit) [s] | Kd (VHL + Brd4^BD2 [9]; [15]) [nM] | dissociation kinetics faster than the VHL/MZ1/Brd4^BD2 complex (VHL + Brd4^BD2 [9]) [fold] | Kd (VHL [7]; multicycle, kinetic fit) [nM] | further results |
| --- | --- | --- | --- | --- | --- | --- | --- | --- | --- | --- | --- | --- | --- | --- | --- | --- | --- | --- |
| Cc1ncsc1-c1ccc(CNC(=O)[C@@H]2C[C@@H](O)CN2C(=O)[C@@H](NC(=O)COCCOCCOCCNC(=O)C[C@@H]2N=C(c3ccc(Cl)cc3)c3c(sc(C)c3C)-n3c(C)nnc32)C(C)(C)C)cc1 [MZ1] |  |  |  |  |  |  |  |  |  |  |  |  |  |  |  |  |  | ΔΔG (ITC) (VHL + Brd2^BD2 [1]): –0.5 ^d kcal/mol; α (ITC) (VHL + Brd2^BD2 [1]): 2.3 ^d; ΔΔG (ITC) (VHL + Brd4^BD1 [2]): –0.5 ^d kcal/mol; α (ITC) (VHL + Brd4^BD1 [2]): 2.3 ^d; ΔΔG (ITC) (VHL + Brd3^BD2 [3]): –1.5 ^d kcal/mol; α (ITC) (VHL + Brd3^BD2 [3]): 10.7 ^d; ΔΔG (ITC) (VHL + Brd3^BD1 [4]): –0.8 ^d kcal/mol; α (ITC) (VHL + Brd3^BD1 [4]): 3.5 ^d; ΔΔG (ITC) (VHL + Brd2^BD1 [5]): –0.6 ^d kcal/mol; α (ITC) (VHL + Brd2^BD1 [5]): 2.9 ^d |
| CC(=O)N1c2ccc(-c3ccc(C(=O)NCCOCCOCC(=O)N[C@H](C(=O)N4C[C@H](O)C[C@H]4C(=O)NCc4ccc(-c5scnc5C)cc4)C(C)(C)C)cc3)cc2[C@H](Nc2ccc(Cl)cc2)C[C@@H]1C [MZP61] | 781 | +1.1 ^e kcal/mol | 0.1 ^e | 104 | high | 116 | +1.0 kcal/mol | 0.2 | +0.6 kcal/mol | 0.4 | 465 | 1 | 30 | 1 | 248 | > 80 |  | ΔΔG (ITC) (VHL + Brd4^BD2 [6]; ref [10], listed as MZP 61): +1.1 kcal/mol |
| CC(=O)N[C@H](C(=O)N1C[C@H](O)C[C@H]1C(=O)NCc1ccc(-c2scnc2C)cc1)C(C)(C)SCCCCCCNC(=O)C[C@@H]1N=C(c2ccc(Cl)cc2)c2c(sc(C)c2C)-n2c(C)nnc21 [AT1] |  |  |  |  | weaker |  |  | 4.7 |  |  | 24 |  |  |  |  |  | 110 | ΔΔG (ΔG^ternary – ΔG^binary) (VHL + Brd3^BD1 [10]): +0.2 kcal/mol; α (cooperativity, KD^binary/KD^ternary) (VHL + Brd3^BD1 [10]): 0.8; ΔΔG (ΔG^ternary – ΔG^binary) (VHL + Brd4BD2G386E): +0.2 kcal/mol; α (cooperativity, KD^binary/KD^ternary) (VHL + Brd4BD2G386E): 0.8; Kd (VHL + Brd4^BD2 [6]; ref [2]): 46 nM; ΔΔG (ΔG^ternary – ΔG^binary) (VHL + Brd2^BD1 [11]): +0.9 kcal/mol; α (cooperativity, KD^binary/KD^ternary) (VHL + Brd2^BD1 [11]): 0.3; ΔΔG (ΔG^ternary – ΔG^binary) (VHL + Brd4^BD1 [12]): +1.1 kcal/mol; α (cooperativity, KD^binary/KD^ternary) (VHL + Brd4^BD1 [12]): 0.2; Kd (VHL [8]; ref [2]): 335 nM; α (cooperativity, KD^binary/KD^ternary) (VHL + Brd3BD2E344G): 3.4; α (cooperativity, KD^binary/KD^ternary) (VHL + Brd2^BD2 [13]; SPR, ternary + Brd2^BD2): 4.1; Kd (VHL + Brd2^BD2 [13]; ternary (+ Brd2^BD2), 298.15 K, single-cycle, kinetic fit): 27 nM; ΔΔG (ΔG^ternary – ΔG^binary) (VHL + Brd2BD2G382E): +0.3 kcal/mol; α (cooperativity, KD^binary/KD^ternary) (VHL + Brd2BD2G382E): 0.7; ΔΔG (ΔG^ternary – ΔG^binary) (VHL + Brd3^BD2 [14]): +0.4 kcal/mol; α (cooperativity, KD^binary/KD^ternary) (VHL + Brd3^BD2 [14]): 0.7 |
| CC(=O)N1c2ccc(-c3ccc(C(=O)NCCOCCOCCOCCOCC(=O)N[C@H](C(=O)N4C[C@H](O)C[C@H]4C(=O)NCc4ccc(-c5scnc5C)cc4)C(C)(C)C)cc3)cc2[C@H](Nc2ccc(Cl)cc2)C[C@@H]1C [MZP55] | 183 | +0.3 ^e kcal/mol | 0.6 ^e | 188 | high | 109 | +0.7 kcal/mol | 0.4 | +0.5 kcal/mol | 0.5 | 185 | 0.47 | 27 | 1 | 134 | > 80 | 69 | ΔΔG (ITC) (VHL + Brd4^BD2 [6]; ref [10], listed as MZP 55): +0.3 kcal/mol; α (ITC) (VHL + Brd4^BD2 [6]; ref [10], listed as MZP 55): 0.6; koff (VHL [7]; multicycle, kinetic fit): 0.015 s⁻¹; kon (VHL [7]; multicycle, kinetic fit): 2.7 M^–1 s^–1 × 10^5; t1/2 (dissociative half-life, ln2/koff) (VHL [7]; multicycle, kinetic fit): 48 s |
